From patent publication US20250032425A1, “FIRST IN CLASS USE OF ESTROGEN RECEPTOR BETA AGONISTS IN TREATING ANGELMAN SYNDROME AND RELEVANT AUTISM SPECTRUM DISORDERS” (BROWN UNIVERSITY, priority 2023, published 2025)
“Also recorded” adds a separate entry of the source.

Columns and labels:
[1] = tested on: iOPCs expressing Cas9 and a sgRNA targeting UBE3A; assay: EdU incorporation in iOPCs with CRISPR/Cas9 UBE3A depletion (Lenti-sgUBE3A #1-3); assay type: cell-based, human; conditions: 10 μM; any of the sgRNAs
Description: The sgRNAs targeting UBE3A, and negative control were obtained from Applied Biological Materials Inc. Targeting sgRNA sequences against UBE3A are: sgRNA1, […]; sgRNA2, […]; sgRNA3, […]. These sgRNAs were integrated into the backbone of the negative control pLenti-U6-sgRNA-SFFV-Cas9-2A-Puro. All constructs were packaged into lentiviruses and concentrated by Lenti-X Concentrator (Takara Bio #631231). In each experiment, 5-10 μl of concentrated virus was administered into ˜70% confluent iOPCs cultures in 6-well plates. One day post-lentiviral transduction, iOPC cultures were treated with approximately 5 μg/ml Puromycin to isolate those iOPCs which are expressing Cas9/sgRNAs. Following a day of selection, the iOPCs were then seeded on gelatin-coated coverslips placed in 24-well plates at a density of 100,000 cells per well. After another day allowed for cell stabilization, treatment with either the vehicle control (DMSO), AC-186, DPN, or LY500307 commenced at a standard concentration of 10 μM. A final 24-hour period after this treatment saw the cells exposed to […] for three hours, preparing them for subsequent immunofluorescence staining.
The EdU labeling kit from ThermoFisher Scientific (#C10637) was used to trace cell proliferation by incubating iOPCs with 2 μM EdU for three hours before fixation. Following EdU incorporation, cells were fixed in 4% paraformaldehyde, blocked with normal serum, and stained with primary antibodies, Rabbit anti-Ki67 and Mouse anti-UBE3A. These steps were conducted according to the manual of the labeling kit and also detailed immunofluorescence staining protocols described below, to ensure specific detection of the proliferation marker Ki67 and the ubiquitin-protein ligase UBE3A in the cells for subsequent imaging analysis.

[2] = tested on: rat OPCs with normal UBE3A levels; assay: Proliferation of rat OPCs with normal UBE3A levels; assay type: cell-based
[3] = tested on: UBE3A-deficient iOPCs and iOLs; assay: Oligodendrocyte differentiation of UBE3A-deficient iOPCs into iOLs (immunoblotting of Ki67, MAG, CNPase); assay type: cell-based, human; conditions: AC-186 (10 µM)
Description: FIG. 25C: Immunoblotting was conducted to assess the impact of UBE3A depletion on ESR-β expression during oligodendrocyte differentiation. Protein levels of ESR-β in UBE3A-deficient iOPCs and subsequently differentiated iOLs were quantified, normalized against the loading control GAPDH, and expressed relative to the iOPC+siNC control condition (set at 1.0). […] Levels of Ki67 and Myelin Associated Glycoprotein (MAG) were measured in UBE3A-deficient iOPCs and iOLs differentiated from them, normalized against GAPDH, and compared to the iOPC+siNC condition. n=4 experiments. FIG. 25E: Immunoblotting to examine the role of UBE3A for OPC self-renewal and oligodendrocyte differentiation across different developmental stages. Expression of maturation and myelination markers (MBP, MAG, PLP1, CNPase) was quantified following UBE3A depletion timed from iOPCs to pre-iOLs, normalized against TUBB1. and compared to the iOPC+siNC control condition (set at 1.0). n=4 experiments.

UBE3A-deficient iOPCs = assay: Ki67 (and PCNA) immunoblotting in UBE3A-knockdown iOPCs: compound screen and rescue of proliferation; assay type: cell-based, human; conditions: for EC50: Homo sapiens, iOPCs treated with siUBE3A, Ki67 immunoblotting normalized to siNC plus vehicle, read-out: EC50 for rescue of Ki67 expression; for Ki67 expression (FIG. 19G) / PCNA expression (FIG. 19G): siUBE3A cells, normalized to GAPDH
Description: Given the scarcity of knowledge regarding UBE3A function in oligodendrocyte biology, a comprehensive exploration of various cellular functions was performed, leveraging the high-throughput capabilities of the iPSC-based methodology (e.g., as described herein). We selected over 45 compounds with known targeted cellular actions (Table 1). These were chosen based on their documented effects on UBE3A, their ability to promote oligodendrocyte development and myelination, or their protective 10 roles in neural tissue. UBE3A expression was modulated using siRNA, achieving a controlled reduction that decreased OPC proliferation by approximately 50%, as evidenced by Ki67 protein levels.
iPSC Culturing and Generation of Induced Human Brain Cells Including Oligodendroglia, Neurons (IN), Astrocytes (iAs) and Microglia (iMG) The generation of iPSC-derived human oligodendrocyte precursor cells (iOPCs) was carried out according to a previously published protocol by Vulakh and Yang et al., 2023 (Characterizing the Neuron-Glial Interactions by the Co-cultures of Human iPSC-Derived Oligodendroglia and Neurons. Methods Mol. Biol. 2683), which itself was a modification of an earlier protocol by Assetta et al., 2020 (Generation of Human Neurons and Oligodendrocytes from Pluripotent Stem Cells for Modeling Neuron-Oligodendrocyte Interactions. J Vis Exp.). The process began with the control iPSCs, which is a well-characterized control reference line acquired from the NIH-funded iPSC Neurodegenerative Disease Initiative (INDI, (Ramos, D. M., Skarnes, W. C., Singleton, A. B., Cookson, M. R., and Ward, M. E. (2021). Tackling neurodegenerative diseases with genomic engineering: A new stem cell initiative from the NIH. Neuron 109, 1080-1083. 10.1016/j.neuron.2021.03.022)), distributed by the Jackson Laboratory. These iPSCs were maintained in mTeSR plus medium (StemCell Technologies, #05825) and expanded in Stem Flex medium (Fisher Scientific. #A3349401) for the induction of neural progenitor cells (INPC). The iNPCs were derived by treating iPSCs with a commercial SMAD inhibitor medium (StemCell Technologies, #08582) for 7 days (Week 1). Subsequently, NPCs were further induced to become OPCs by a 7-day incubation (Week 2) with a chemically-defined OPC medium: DMEM/F12 medium (Thermo Fisher, #11320033) supplemented by 10 ng/ml PDGF-AA (R&D Systems, #221-AA-025), 1 μM SAG (Tocris, #4366), […] N-Acetyl-Cysteine (Millipore Sigma, #A9165-5G), 20 ng/mL bFGF (R&D Systems, #233-FB-025/CF), 1% N2 supplement (Thermo Fisher, #17502048), and 1% B27 supplement (Thermo Fisher, #17504044). […] The additional incubation with OL medium for 7-14 days (Week 4-5) yielded mature, myelinating OLs.
The siRNAs targeting UBE3A (Thermo Fisher, #4390815 and #4390816), estrogen receptors (Thermo Scientific #145909 for ESRβ, #145539 for ESRα, and #4390824 for GPER), and negative control (Thermo Scientific, #AM4615) were obtained commercially. The 10-20 nM final concentration was used with Lipofectamine RNAiMAX transfection reagent (Thermo Scientific #13778075) and incubated for at least 48 hours before the treatments of therapeutic compounds or other reagents.
Cells were collected by fast spin down in centrifuge tubes before lysis in RIPA buffer (ThermoFisher, #89901) supplemented with proteinase inhibitor cocktail (Sigma-Aldrich, #5892791001) on ice. Lysates were then spun down at 15000 rpm for 10 mins, the supernatant was collected and mixed with 4× Laemmle sample buffer (Bio-Rad, #1610747) and cooked 10 mins before SDS-PAGE and transferred with Bio-Rad fast transfer system, the membranes were blocked for one hour in 1× Tris Buffered Saline (TBS) with 1% Casein buffer (Bio-Rad, #1610782) and incubated with primary antibodies overnight at 4 degrees. […]

SMILES | number of EdU+ cells [1] | effect on OPCs with normal UBE3A levels [2] | oligodendrocyte differentiation (MAG, CNPase) with treatment at various stages, FIG. 26C ([3]; iOPC to pre-iOL to iOL stages) | oligodendrocyte differentiation (MAG), FIG. 25D ([3]; UBE3A-deficient iOLs, clemastine (2.5 μM), 3 days) | restoration of Ki67 expression in compound screen (UBE3A-deficient iOPCs; 10 μM, 24 hours, Ki67 immunoblotting normalized to siNC=1.0) | EC50 (UBE3A-deficient iOPCs; 24 hours) | Ki67 expression (FIG. 19G) (UBE3A-deficient iOPCs; 10 μM, 24 hours) | PCNA expression (FIG. 19G) (UBE3A-deficient iOPCs; 10 μM, 24 hours) | impact of UBE3A loss on OPC proliferation (FIG. 18F, 19G) (UBE3A-deficient iOPCs; ERβ activators of different structural classes)
Oc1ccc(C2(c3ccccc3F)CCC(F)(F)CC2)cc1 [AC-186] | increased the number of EdU+ cells | neither AC-186 nor DPN affected | beneficial effects on differentiation were observed when administered during the iOPC stage | no impact on differentiation | restored; also recorded: effectively normalized proliferation levels; also recorded: Statistically significant; also recorded: capable of restoring Ki67 expression | ~16 nM | increased expression | increased expression | 
N#CC(Cc1ccc(O)cc1)c1ccc(O)cc1 (centres unmarked) [DPN, diarylpropionitrile, reference compound] | increased the number of EdU+ cells | neither AC-186 nor DPN affected |  |  |  | ~19 nM | increased expression | increased expression | similarly mitigated the impact of UBE3A loss on OPC proliferation
